# How the values were obtained:
# [1] = system: Ucp1; test: Relative Ucp1 expression in fat depots (RT-qPCR); type: in vivo, mouse; settings: 40 mg/kg/day ip, HFHSD-fed mice, vs vehicle
# [2] = system: murine PPARγ Ser273 phosphorylation; test: TNFα-induced PPARγ Ser273 phosphorylation in 3T3-L1 adipocytes; type: cell-based; settings: cultured murine adipocytes
# Experimental: For cell-based assay, 3T3-L1 cells were induced differentiation one day after achieving 100% confluence with 0.5 mM IBMX, 1 µm dexamethasone and 10 μg/mL insulin in DMEM containing 10% FBS for 2 days and maintained differentiation in DMEM supplemented with 10 μg/mL insulin and 10% FBS for 4 days. The medium was changed every 2 days. […] Then TNFα was added to induce PPARγ phosphorylation in a concentration of 50 ng/ml for 15 min. Cells were harvested and lysed in RIPA buffer supplemented with 1X cOmplete™, EDTA-free Protease Inhibitor Cocktail (cat. no. 04693132001, Roche) and 1X PhosSTOP™ (cat. no. 4906845001, Roche).
# The protein concentrations of tissue lysates were measured by Bradford reagent (cat. no. BP500-0006, Bio-Rad). The protein samples were mixed with 6X sample buffer (0.3 M Tris-HCl, pH 6.8, 0.6 M DTT, 12% SDS, 0.6% Bromophenel blue and 60% glycerol) and heated at 70 °C for 5 min. 30 μg of each sample were separated by 10% SDS-PAGE gel and were transferred to PVDF membrane. The membrane was blocked by 3% BSA in Tris-buffered saline containing 0.1% Tween-20 for 1 h at room temperature and incubated with primary antibody at 4 °C overnight. […] Protein expression of phospho-PPARγ was analyzed using ImageJ software and normalized against PPARγ and GAPDH.
# [3] = Pharmacokinetic study in male ICR mice; type: in vivo, mouse; settings: plasma
# Experimental: Male ICR mice weighing 25–30 g each were obtained from BioLASCO, Taiwan Co., Ltd., Ilan, Taiwan for pharmacokinetic study. Briefly, a single dose of BRRPT245 was given intravenously at 2 mg/kg or oral gavage at 10 mg/kg to the mice. Blood samples were taken at 0 (immediately before dosing), 2, 5 (iv only), 15 and 30 min and at 1, 2, 4, 6, 8, 16, and 24 h after administration. The T1/2 (half-life), Cl (clearance), Vss (steady-state volume of distribution), AUC (area under curve), Cmax (maximum plasma concentration), Tmax (time taken to reach Cmax), and F(bioavailability%) were calculated according to the published formula (Urso et al, [2002]).
# The HPLC system consisted of an Agilent 1200 series LC System with BinPump (Waldbronn, Germany) and an Agilent Eclipse XDB C8 (3.0 × 150 mm, 5 µm) interfaced to a Sciex API 4000 tandem mass spectrometer. Mobile phase consisted of 10 mM ammonium acetate containing 0.1% of formic acid (Solvent A) and acetonitrile (Solvent B). For determination of BPTPT0245, the following stepwise gradient system was used: 85% A (0–0.5 min), 85% A to 15% A (0.6–3.0 min), 5% A (3.1–5.0 min). Total running time was 5 min. The retention times of BPRPT0245 and BPR0L187 (internal standard) (IS) were 2.21 and 2.42 min, respectively. Data acquisition was via selected ion monitoring (SIM). The collision energy was +37 V for the analyte and +38.5 V for IS, respectively. The ions monitored for BPRPT0245 were m/z 447/189 and m/z 357/195, respectively. […] Total running time was 6 min. […] Data acquisition was via SIM.
# To prepare the BPRPT0245 plasma samples, 50 µL of the plasma sample mixed with 100 µL acetonitrile containing […] of BPR0L187. The mixture was vortexed for 30 s and then centrifuged at 15,000 rpm for 20 min in an Eppendorf Model 5417c centrifuge at room temperature. An aliquot (5 µL) of the mixture was then injected onto to LC-MS/MS.
structure (smiles),measurement,setting,value
"CCCCCC(=O)/C=C/[C@H]1[C@H](O)CC(=O)[C@@H]1C/C=C\CCCC(=O)O [15-keto-PGE2, 15-keto-prostaglandin E2]",expression of Ucp1 in fat depots,[1],"increased expression of Ucp1 in inguinal, perigonadal, and brown adipose tissues"
same,phosphorylation of PPARγ Ser273,[2],dose-dependently reduced phosphorylation of Ser273
Cc1[nH]c2nc(C(C)N3CCN(c4ccccc4)CC3)nn2c(=O)c1Cc1ccc(F)cc1 (centres unmarked) [BPRPT0245],AUC(0-inf),"[3]; Mouse IV, dose 2 mg/kg",480 ng·h/mL
same,clearance,"[3]; Mouse IV, dose 2 mg/kg",79.5 mL/min/kg
same,half-life,"[3]; Mouse IV, dose 2 mg/kg",2 h
same,Vd,"[3]; Mouse IV, dose 2 mg/kg, read-out: Vss",5 L/kg
same,AUC(0-inf),"[3]; Mouse PO, dose 10 mg/kg",725 ng·h/mL
same,Cmax,"[3]; Mouse PO, dose 10 mg/kg",398 ng/mL
same,Tmax,"[3]; Mouse PO, dose 10 mg/kg",0.4 h
same,half-life,"[3]; Mouse PO, dose 10 mg/kg",2.5 h
same,bioavailability,"[3]; Mouse PO, dose 10 mg/kg, read-out: F(%) bioavailability",30.2%
